From patent US10786580B2, “Cholecystokinin 2 receptor targeted NIR imaging and use thereof” (On Target Laboratories, LLC, priority 2016, dated 2020)
Read-outs that look alike come from different tables or passages of the source.

Key:
[1] = biological target: T1, CCK2R (Homo sapiens, UniProt P32239); test: In vitro binding of CCK2R-NIR compounds to HEK-CCK2R cells (cell bound fluorescence); parameters: expressed in transfected cells; host or cells: HEK (human embryonic kidney) cells, HEK-CCK2R, gift from Dr. Mark Hellmich (UTMB); conditions: for Kd: CCK2R-positive HEK-CCK2R cancer cells, 1 h at 37° C., read-out: KD; for affinity for CCK2R (in words): in vitro binding affinity data
T1 sequence (P32239 1-447): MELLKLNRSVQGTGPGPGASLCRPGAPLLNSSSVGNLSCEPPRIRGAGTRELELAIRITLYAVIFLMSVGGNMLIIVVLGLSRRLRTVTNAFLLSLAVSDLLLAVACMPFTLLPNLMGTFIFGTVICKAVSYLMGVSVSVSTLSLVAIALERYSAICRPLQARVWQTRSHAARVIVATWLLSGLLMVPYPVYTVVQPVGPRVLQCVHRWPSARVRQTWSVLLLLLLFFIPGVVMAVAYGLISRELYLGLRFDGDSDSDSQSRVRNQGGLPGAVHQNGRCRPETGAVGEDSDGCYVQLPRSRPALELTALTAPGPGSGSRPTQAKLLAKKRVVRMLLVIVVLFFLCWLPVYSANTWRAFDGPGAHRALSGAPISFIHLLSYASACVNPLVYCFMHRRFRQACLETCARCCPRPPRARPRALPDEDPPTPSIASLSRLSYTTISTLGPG
Description: (§1) FIG. 4 depicts the binding affinities of CCK2R-NIR compounds 21, 42-44 to CCK2R. CCK2R-positive HEK-CCK2R cancer cells were incubated for 1 h at 37° C. with increasing concentrations of compounds. Media was then removed, washed with fresh media three times, and replaced with PBS. Cell bound fluorescence was assayed as using fluorometer.
CCK2R-positive HEK-CCK2R cancer cells were incubated for 1 h at 37° C. with increasing concentrations of compounds. Media was then removed, washed with fresh media three times, and replaced with PBS. Cell bound fluorescence was assayed as using fluorometer.
as §1, with “13 illustrates” for “4 depicts”, “affinity” for “affinities”, “of” for “of CCK2R-NIR”, “[…]” for “21, 42-44”, “compound 21.” for “compounds.”
HEK-CCK2 cells (a human embryonic kidney cells transfected with CCK2 receptor) were a kind gift from Dr. Mark Hellmich (University of Texas Medical Branch, Galveston, Tex.) and grown as a monolayer using Dulbecco's Modified Eagles Medium (GIBCO) (Gibco, NY) 10% heat-inactivated fetal bovine serum (Atlanta Biological, GA) and 1% penicillin streptomycin (Gibco, NY) in a 5% carbon dioxide: 95% air-humidified atmosphere at 37° C. for at least six passages before they were used for the assays.
HEK cells that overexpress CCK2 were seeded into a T75 flask and allowed to form a monolayer over 48 h. After trypsin digestion, release cells were transferred into centrifuge tubes (1×10^6 cells/tube) and centrifuged. The medium was replaced with fresh medium containing increasing concentration of requisite CCK2R-Ligand-NIR dye compound in the presence or absence of 100-fold excess the ligand, a high affinity CCK2 receptor antagonist, and incubated for 1 h at 37° C. After rinsing with fresh medium (2×1.0 mL) and PBS (1×1.0 mL), cells were resuspended in PBS (1.0 mL) and cell bound fluorescence was analyzed (100,000 cells/sample) using a fluorometer (Cary, Agilent). The relative binding affinities were calculated using a plot of % cell bound fluorescence versus the log concentration of the test article using GraphPad Prism 4.

[2] = biological target: T2, CCK1R (Homo sapiens, UniProt P32238); conditions: cited from earlier work
T2 sequence (P32238 1-428): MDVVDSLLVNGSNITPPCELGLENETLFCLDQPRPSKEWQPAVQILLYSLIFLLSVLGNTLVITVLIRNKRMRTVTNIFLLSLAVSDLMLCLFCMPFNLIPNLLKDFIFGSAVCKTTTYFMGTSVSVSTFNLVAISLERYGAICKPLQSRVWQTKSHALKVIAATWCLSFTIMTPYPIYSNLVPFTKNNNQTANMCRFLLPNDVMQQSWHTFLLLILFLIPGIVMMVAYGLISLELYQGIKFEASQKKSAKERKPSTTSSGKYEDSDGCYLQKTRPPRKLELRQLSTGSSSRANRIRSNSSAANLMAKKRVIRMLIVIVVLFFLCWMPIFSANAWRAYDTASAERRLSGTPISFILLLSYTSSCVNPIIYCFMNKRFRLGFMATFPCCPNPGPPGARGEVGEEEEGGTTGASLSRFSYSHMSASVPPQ

[3] = system: subcutaneous PANC-1 tumor; conditions: oral Z-360 along with gemcitabine, cited from earlier work
[4] = biological target: T1, CCK2R; conditions: cited from earlier work

SMILES	Kd ([1]; Table 2)	affinity for CCK2R (in words) ([1]; HEK-CCK2R cells)	also measured
CC(C)(C)C(=O)CN1C(=O)[C@@H](NC(=O)Nc2cccc(C(=O)N[C@@H](CCC(=O)N[C@H](CCCNC(=N)N)C(=O)N[C@H](CC(=O)O)C(=O)N[C@H](Cc3ccc(OC4=C(/C=C/C5=[N+](CCCCS(=O)(=O)[O-])c6ccc(S(=O)(=O)O)cc6C5(C)C)CCC/C4=C\C=C4\N(CCCCS(=O)(=O)O)c5ccc(S(=O)(=O)O)cc5C4(C)C)cc3)C(=O)O)C(=O)O)c2)CN(C2CCCCC2)c2ccccc21 [Compound 44]	–	relatively weaker affinity	–
CC(C)(C)C(=O)CN1C(=O)[C@H](NC(=O)Nc2cccc(C(=O)N[C@@H](CCC(=O)N[C@@H](Cc3ccc(OC4=C(/C=C/C5=[N+](CCCCS(=O)(=O)[O-])c6ccc(S(=O)(=O)O)cc6C5(C)C)CCC/C4=C\C=C4\N(CCCCS(=O)(=O)O)c5ccc(S(=O)(=O)O)cc5C4(C)C)cc3)C(=O)O)C(=O)O)c2)CN(C2CCCCC2)c2ccccc21 [Compound 45]	2.3 nM	–	–
CC(C)(C)C(=O)CN1C(=O)[C@H](NC(=O)Nc2cccc(C(=O)N[C@H](CCC(=O)N[C@@H](CCCNC(=N)N)C(=O)N[C@@H](Cc3ccc(OC4=C(/C=C/C5=[N+](CCCCS(=O)(=O)[O-])c6ccc(S(=O)(=O)O)cc6C5(C)C)CCC/C4=C\C=C4\N(CCCCS(=O)(=O)O)c5ccc(S(=O)(=O)O)cc5C4(C)C)cc3)C(=O)O)C(=O)O)c2)CN(C2CCCCC2)c2ccccc21 [Compound 42]	–	relatively weaker affinity	Kd ([1]; Table 1): 1.74 nM
CC(C)(C)C(=O)CN1C(=O)[C@@H](NC(=O)Nc2cccc(C(=O)N[C@H](CCC(=O)O)C(=O)N[C@H](Cc3ccc(OC4=C(/C=C/C5=[N+](CCCCS(=O)(=O)[O-])c6ccc(S(=O)(=O)O)cc6C5(C)C)CCC/C4=C\C=C4\N(CCCCS(=O)(=O)O)c5ccc(S(=O)(=O)O)cc5C4(C)C)cc3)C(=O)O)c2)CN(C2CCCCC2)c2ccccc21 [Compound 43]	–	very high affinity	–
CC(C)(C)C(=O)CN1C(=O)[C@H](NC(=O)Nc2cccc(C(=O)O)c2)CN(C2CCCCC2)c2ccccc21 [Compound Z-360]	–	–	selectivity ratio over CCK1R [2]: 672; inhibition of subcutaneous PANC-1 tumor growth ([3]; compared with either agent alone): 27.1%; survival compared with the vehicle [3]: significantly increased survival; Ki [4]: 0.47 nM

Continued, in another order:

Kd ([1]; Table 2)	affinity for CCK2R (in words) ([1]; HEK-CCK2R cells)	SMILES	also measured
0.9 nM	very high affinity	CC(C)(C)C(=O)CN1C(=O)[C@H](NC(=O)Nc2cccc(C(=O)NCCCC(=O)N[C@@H](Cc3ccc(OC4=C(/C=C/C5=[N+](CCCCS(=O)(=O)[O-])c6ccc(S(=O)(=O)O)cc6C5(C)C)CCC/C4=C\C=C4\N(CCCCS(=O)(=O)O)c5ccc(S(=O)(=O)O)cc5C4(C)C)cc3)C(=O)O)c2)CN(C2CCCCC2)c2ccccc21 [Compound 48]	affinity for CCK2R compared to compound 21 ([1]; HEK-CCK2R cells): less affinity
14.7 nM	relatively weak affinity	CC(C)(C)C(=O)CN1C(=O)[C@@H](NC(=O)Nc2cccc(C(=O)N[C@H](CCC(=O)N[C@@H](Cc3ccc(OC4=C(/C=C/C5=[N+](CCCCS(=O)(=O)[O-])c6ccc(S(=O)(=O)O)cc6C5(C)C)CCC/C4=C\C=C4\N(CCCCS(=O)(=O)O)c5ccc(S(=O)(=O)O)cc5C4(C)C)cc3)C(=O)O)C(=O)O)c2)CN(C2CCCCC2)c2ccccc21 [Compound 47]	–
13.9 nM	–	CC(C)(C)C(=O)CN1C(=O)[C@H](NC(=O)Nc2cccc(C(=O)NCCCC(=O)N[C@H](Cc3ccc(OC4=C(/C=C/C5=[N+](CCCCS(=O)(=O)[O-])c6ccc(S(=O)(=O)O)cc6C5(C)C)CCC/C4=C\C=C4\N(CCCCS(=O)(=O)O)c5ccc(S(=O)(=O)O)cc5C4(C)C)cc3)C(=O)O)c2)CN(C2CCCCC2)c2ccccc21 [Compound 49]	–
